Data on 21 compounds can be found in patent publication US20200016136A1 (VIIV HEALTHCARE UK (NO. 5) LIMITED, priority 2017, published 2020).

The subject of the test is NL-RLuc virus (recombinant NL4-3 HIV with Renilla Luciferase gene). Put plainly: Inhibition of HIV replication (NL-RLuc virus in MT-2 cells, luciferase readout). The note with it: MT2, 120 h. It is filed as cell-based, Human immunodeficiency virus (HIV). Summed up:
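MT-2 cells infected with NL4-3-derived virus carrying Renilla luciferase in place of part of nef, grown 5 days with serial compound dilutions in RPMI 1640/10% FBS. Virus growth read as luciferase expression. EC50 from median effect equation, at least 2 experiments.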
The term EC50 denotes the concentration needed to bring the measured effect to its halfway point. `CC1(C)CCN(Cc2nc(Cl)c([C@H](OC(C)(C)C)C(=O)O)c(N3CCC(C)(C)CC3)c2-c2ccc3c(c2)CCN(c2ncnc4c2oc2ncccc24)C3)CC1` [Example 114, (S)-2-(tert-Butoxy)-2-(2-chloro-4-(4,4-dimethylpiperidin-1-yl)-6-((4,4-dimethylpiperidin-1-yl)methyl)-5-(2-(pyrido[3′,2′:4,5]furo[3,2-d]pyrimidin-4-yl)-1,2,3,4-tetrahydroisoquinolin-6-yl)pyridin-3-yl)acetic Acid]: the EC50 worked out at 0.1 nM.

Take `Cc1cccc(Cl)c1CN1CCc2cc(-c3cnc(Cl)c([C@H](OC(C)(C)C)C(=O)O)c3N3CCC(C)(C)CC3)ccc2C1` [Example 102, (S)-2-(tert-Butoxy)-2-(2-chloro-5-(2-(2-chloro-6-methylbenzyl)-1,2,3,4-tetrahydroisoquinolin-6-yl)-4-(4,4-dimethylpiperidin-1-yl)pyridin-3-yl)acetic Acid]: the concentration for a half-maximal effect (EC50) is 8 nM. Then `Cc1nc(C)c([C@H](OC(C)(C)C)C(=O)O)c(N2CCC(C)(C)CC2)c1-c1ccc2c(c1)CCN(c1nccc(N3CCC4(CCC4)CC3)n1)C2` [Example 25, (2S)-2-{5-[2-(4-{7-Azaspiro[3.5]nonan-7-yl}pyrimidin-2-yl)-1,2,3,4-tetrahydroisoquinolin-6-yl]-4-(4,4-dimethylpiperidin-1-yl)-2,6-dimethylpyridin-3-yl}-2-(tert-butoxy)acetic Acid], with 5 nM.

As for `Cc1nc(N2CCOCC2)cc(N2CCc3cc(-c4c(C)nc(C)c([C@H](OC(C)(C)C)C(=O)O)c4N4CCC(C)(C)CC4)ccc3C2)n1` [Example 64, (S)-2-(tert-Butoxy)-2-(4-(4,4-dimethylpiperidin-1-yl)-2,6-dimethyl-5-(2-(2-methyl-6-morpholinopyrimidin-4-yl)-1,2,3,4-tetrahydroisoquinolin-6-yl)pyridin-3-yl)acetic Acid], the EC50 was 8 nM.

Consider `Cc1nc(C)c([C@H](OC(C)(C)C)C(=O)O)c(N2CCC(C)(C)CC2)c1-c1ccc2c(c1)CCN(c1ccnc(N3CCC(O)CC3)n1)C2` [Example 75, (S)-2-(tert-Butoxy)-2-(4-(4,4-dimethylpiperidin-1-yl)-5-(2-(2-(4-hydroxypiperidin-1-yl)pyrimidin-4-yl)-1,2,3,4-tetrahydroisoquinolin-6-yl)-2,6-dimethylpyridin-3-yl)acetic Acid], for which the 50% effective concentration (EC50) was 3 nM. Then `Cc1nc(C)c([C@H](OC(C)(C)C)C(=O)O)c(N2CCC(C)(C)CC2)c1-c1ccc2c(c1)CCN(c1ccnc(N3CCS(=O)(=O)CC3)n1)C2` [Example 45, (S)-2-(tert-Butoxy)-2-(4-(4,4-dimethylpiperidin-1-yl)-5-(2-(2-(1,1-dioxidothiomorpholino)pyrimidin-4-yl)-1,2,3,4-tetrahydroisoquinolin-6-yl)-2,6-dimethylpyridin-3-yl)acetic Acid], with 8 nM.

On to `Cc1ncc(-c2ccc3c(c2)CCN(c2ncnc4c2oc2ccccc24)C3)c(N2CCC(C)(C)CC2)c1[C@H](OC(C)(C)C)C(=O)O` [Example 49, (2S)-2-(tert-Butoxy)-2-[4-(4,4-dimethylpiperidin-1-yl)-2-methyl-5-(2-{8-oxa-3,5-diazatricyclo[7.4.0.0^2,7]trideca-1(9),2(7),3,5,10,12-hexaen-6-yl}-1,2,3,4-tetrahydroisoquinolin-6-yl)pyridin-3-yl]acetic Acid], for which the EC50 was determined as 1 nM. Then `Cc1nc(C)c([C@H](OC(C)(C)C)C(=O)O)c(N2CCC(C)(C)CC2)c1-c1ccc2c(c1)CCN(c1nccc(N3CCC3)n1)C2` [Example 19, (2S)-2-(5-{2-[4-(Azetidin-1-yl)pyrimidin-2-yl]-1,2,3,4-tetrahydroisoquinolin-6-yl}-4-(4,4-dimethylpiperidin-1-yl)-2,6-dimethylpyridin-3-yl)-2-(tert-butoxy)acetic Acid], with 1 nM; and `Cc1nc(C)c([C@H](OC(C)(C)C)C(=O)O)c(N2CCC(C)(C)CC2)c1-c1ccc2c(c1)CCN(c1ncc(F)cc1F)C2` [Example 72, (S)-2-(tert-Butoxy)-2-(5-(2-(3,5-difluoropyridin-2-yl)-1,2,3,4-tetrahydroisoquinolin-6-yl)-4-(4,4-dimethylpiperidin-1-yl)-2,6-dimethylpyridin-3-yl)acetic Acid], with 8 nM. To `CC1(C)CCN(c2c(-c3ccc4c(c3)CCN(c3nccc(N5CCC(C(C)(C)O)CC5)n3)C4)cnc(Cl)c2[C@H](OC(C)(C)C)C(=O)O)CC1` [Example 93, (S)-2-(tert-Butoxy)-2-(2-chloro-4-(4,4-dimethylpiperidin-1-yl)-5-(2-(4-(4-(2-hydroxypropan-2-yl)piperidin-1-yl)pyrimidin-2-yl)-1,2,3,4-tetrahydroisoquinolin-6-yl)pyridin-3-yl)acetic Acid] belongs 8 nM; to `Cc1nc(C)c([C@H](OC(C)(C)C)C(=O)O)c(N2CCC(C)(C)CC2)c1-c1ccc2c(c1)CCN(c1cccc(C(=O)O)n1)C2` [Example 142, (S)-6-(6-(5-(tert-Butoxy(carboxy)methyl)-4-(4,4-dimethylpiperidin-1-yl)-2,6-dimethylpyridin-3-yl)-3,4-dihydroisoquinolin-2(1H)-yl)picolinic Acid], 381 nM; to `CC1(C)CCN(c2c(-c3ccc4c(c3)CCN(c3nccc(-c5cnccn5)n3)C4)c(N)nc(Cl)c2[C@H](OC(C)(C)C)C(=O)O)CC1` [Example 163, (S)-2-(6-Amino-2-chloro-4-(4,4-dimethylpiperidin-1-yl)-5-(2-(4-(pyrazin-2-yl)pyrimidin-2-yl)-1,2,3,4-tetrahydroisoquinolin-6-yl)pyridin-3-yl)-2-(tert-butoxy)acetic Acid], 3 nM. To `Cc1nc(NCCCN2CCCCC2)c(-c2ccc3c(c2)CCN(c2ncnc4c2oc2ccccc24)C3)c(N2CCC(C)(C)CC2)c1[C@H](OC(C)(C)C)C(=O)O` [Example 15, (S)-2-(5-(2-(Benzofuro[3,2-d]pyrimidin-4-yl)-1,2,3,4-tetrahydroisoquinolin-6-yl)-4-(4,4-dimethylpiperidin-1-yl)-2-methyl-6-((3-(piperidin-1-yl)propyl)amino)pyridin-3-yl)-2-(tert-butoxy)acetic Acid] belongs 2 nM; to `Cc1nc(C)c([C@H](OC(C)(C)C)C(=O)O)c(N2CCC(C)(C)CC2)c1-c1ccc2c(c1)CCN(c1cc(-c3cccc(Cl)c3)ncn1)C2` [Example 82, (S)-2-(tert-Butoxy)-2-(5-(2-(6-(3-chlorophenyl)pyrimidin-4-yl)-1,2,3,4-tetrahydroisoquinolin-6-yl)-4-(4,4-dimethylpiperidin-1-yl)-2,6-dimethylpyridin-3-yl)acetic Acid], 15 nM; to `CC1(C)CCN(c2c(-c3ccc4c(c3)CCN(c3nccc(N5CCOCC5)n3)C4)c(CO)nc(Cl)c2[C@H](OC(C)(C)C)C(=O)O)CC1` [Example 151, (S)-2-(tert-Butoxy)-2-(2-chloro-4-(4,4-dimethylpiperidin-1-yl)-6-(hydroxymethyl)-5-(2-(4-morpholinopyrimidin-2-yl)-1,2,3,4-tetrahydroisoquinolin-6-yl)pyridin-3-yl)acetic Acid], 2 nM.

Regarding `Cc1nc(C)c([C@H](OC(C)(C)C)C(=O)O)c(N2CCC(C)(C)CC2)c1-c1ccc2c(c1)CCN(c1cc(N3CCC(CO)CC3)ncn1)C2` [Example 120, (S)-2-(tert-Butoxy)-2-(4-(4,4-dimethylpiperidin-1-yl)-5-(2-(6-(4-(hydroxymethyl)piperidin-1-yl)pyrimidin-4-yl)-1,2,3,4-tetrahydroisoquinolin-6-yl)-2,6-dimethylpyridin-3-yl)acetic Acid], the EC50 is 14 nM. Regarding `Cc1nc(C)c([C@H](OC(C)(C)C)C(=O)O)c(N2CCC(C)(C)CC2)c1-c1ccc2c(c1)CCN(c1cc(N3C[C@@H](C)O[C@@H](C)C3)ncn1)C2` [Example 130, (S)-2-(tert-Butoxy)-2-(5-(2-(6-((2S,6R)-2,6-dimethylmorpholino)pyrimidin-4-yl)-1,2,3,4-tetrahydroisoquinolin-6-yl)-4-(4,4-dimethylpiperidin-1-yl)-2,6-dimethylpyridin-3-yl)acetic Acid], the EC50 was determined as 5 nM. To `CC1(C)CCN(c2c(-c3ccc4c(c3)CCN(c3ncnc5c3oc3ccccc35)C4)c(N)nc(Cl)c2[C@H](OC(C)(C)C)C(=O)O)CC1` [Example 100, (S)-2-(6-Amino-5-(2-(benzofuro[3,2-d]pyrimidin-4-yl)-1,2,3,4-tetrahydroisoquinolin-6-yl)-2-chloro-4-(4,4-dimethylpiperidin-1-yl)pyridin-3-yl)-2-(tert-butoxy)acetic Acid] belongs 4 nM; to `Cc1ncc(-c2ccc3c(c2)CCN(c2nccc(N4CCOCC4)n2)C3)c(N2CCC(C)(C)CC2)c1[C@H](OC(C)(C)C)C(=O)O` [Example 26, (2S)-2-(tert-Butoxy)-2-[4-(4,4-dimethylpiperidin-1-yl)-2-methyl-5-{2-[4-(morpholin-4-yl)pyrimidin-2-yl]-1,2,3,4-tetrahydroisoquinolin-6-yl}pyridin-3-yl]acetic Acid], 0.8 nM. To `CC1(C)CCN(c2c(-c3ccc4c(c3)CCN(c3ncnc5c3oc3ccccc35)C4)cnc(Cl)c2[C@H](OC(C)(C)C)C(=O)O)CC1` [Example 103, (S)-2-(5-(2-(Benzofuro[3,2-d]pyrimidin-4-yl)-1,2,3,4-tetrahydroisoquinolin-6-yl)-2-chloro-4-(4,4-dimethylpiperidin-1-yl)pyridin-3-yl)-2-(tert-butoxy)acetic Acid] belongs 2 nM; to `Cc1ccccc1-c1cccc(N2CCc3cc(-c4c(C)nc(C)c([C@H](OC(C)(C)C)C(=O)O)c4N4CCC(C)(C)CC4)ccc3C2)n1` [Example 88, (S)-2-(tert-Butoxy)-2-(4-(4,4-dimethylpiperidin-1-yl)-2,6-dimethyl-5-(2-(6-(o-tolyl)pyridin-2-yl)-1,2,3,4-tetrahydroisoquinolin-6-yl)pyridin-3-yl)acetic Acid], 25 nM.
